Reference: patent US8435994B2, “Substituted [1,2,4]triazolo[4,3-alpha]quinoxalines as adenosine A2a receptor antagonists” (Merck Sharp & Dohme Corp., priority 2009, dated 2013)

Target: T1, Human A2a Adenosine Receptor (Homo sapiens, UniProt P29274)
T1 construct: purchased Receptor Biology, Inc., Beltsville, Md; RB-HA2a
Assay: Human Adenosine A2a Receptor Competition Binding Assay ([3H]-SCH 58261 displacement)
Settings: Table I; human A2a membranes, [3H]-SCH 58261 0.5 nM, Cheng-Prusoff; read-out: Activity (Ki)
Protocol: Human Adenosine A2a Receptor Competition Binding Assay Protocol
A2a: Human A2a Adenosine Receptor membranes, Catalog #RB-HA2a, Receptor Biology, Inc., Beltsville, Md. Dilute to 17 μg/100 μl in membrane dilution buffer (see below).
Membrane dilution buffer: Dulbecco's Phosphate Buffered Saline (Gibco/BRL)+ 10 mM MgCl2.
Compound Dilution Buffer: Dulbecco's Phosphate Buffered Saline (Gibco/BRL)+10 mM MgCl2 supplemented with 1.6 mg/ml methyl cellulose and 16% DMSO. Prepared fresh daily.
A2a: [3H]-SCH 58261 [7-(2-phenylethyl)-5-amino-2-(2-furyl)-pyrazolo-[4,3-e]-1,2,4-triazolo[1,5-c]pyrimidine], custom synthesis, Amersham Pharmacia Biotech, Piscataway, N.J. Stock is prepared at 1 nM in membrane dilution buffer. Final assay concentration is 0.5 nM. SCH-58261 is discussed in Zocchi et al., J Pharmacol Exp Ther. 276(2):398-404 (1996).
A2a: To determine non-specific binding, add 100 nM CGS 15923 (RBI, Natick, Mass.). Working stock is prepared at 400 nM in compound dilution buffer.
Prepare 1 mM stock solutions of compounds in 100% DMSO. Dilute in compound dilution buffer. Test at 10 concentrations ranging from 3 μM to 30 μM. Prepare working solutions at 4× final concentration in compound dilution buffer.
Perform assays in deep well 96 well plates. Total assay volume is 200 μl. Add 50 μl compound dilution buffer (total ligand binding) or 50 μl […] working solution (A2a non-specific binding) or 50 μl of drug working solution.

T1 sequence (P29274 whole entry): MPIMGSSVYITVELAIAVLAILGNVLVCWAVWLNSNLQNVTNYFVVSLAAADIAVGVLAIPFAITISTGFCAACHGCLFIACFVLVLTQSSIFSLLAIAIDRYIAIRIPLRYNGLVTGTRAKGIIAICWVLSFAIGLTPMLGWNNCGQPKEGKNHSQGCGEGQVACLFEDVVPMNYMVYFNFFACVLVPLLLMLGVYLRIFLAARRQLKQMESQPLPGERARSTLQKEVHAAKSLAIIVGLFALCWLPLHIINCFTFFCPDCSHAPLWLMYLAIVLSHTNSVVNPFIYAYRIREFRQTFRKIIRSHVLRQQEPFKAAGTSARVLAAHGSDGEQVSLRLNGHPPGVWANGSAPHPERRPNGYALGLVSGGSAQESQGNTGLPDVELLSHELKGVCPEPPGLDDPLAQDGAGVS

Ki [nM]	Compound
38.4	Nc1nc2cc(CO)ccc2n2c(=O)n(Cc3ccccc3F)nc12 [Compound 49]
1.9	COC(=O)c1ccccc1Cn1nc2c(N)nc3ccccc3n2c1=O [Compound 26]
54.9	CC(O)c1ccc2c(c1)nc(N)c1nn(Cc3ccccc3)c(=O)n12 (stereo not drawn) [Compound 52]
32.3	Nc1nc2ccccc2n2c(=O)n(CC3CC3)nc12 [Compound 47]
0.4	Nc1nc2cc(F)c(F)cc2n2c(=O)n(Cc3c(F)cccc3F)nc12 [Compound 1]
8.2	CN(C)/C=N\c1ccccc1Cn1nc2c(N)nc3ccccc3n2c1=O [Compound 39]
3.2	Nc1nc2ccccc2n2c(=O)n(Cc3c(Cl)cccc3Cl)nc12 [Compound 30]
0.7	Nc1nc2ccc(F)cc2n2c(=O)n(Cc3c(F)cccc3F)nc12 [Compound 7]
8.3	CS(=O)(=O)c1ccccc1Cn1nc2c(N)nc3ccccc3n2c1=O [Compound 41]
7.1	Cc1cccc2nc(N)c3nn(Cc4ccccc4)c(=O)n3c12 [Compound 36]
1.4	Nc1nc2cc(F)c(F)cc2n2c(=O)n(Cc3ccccc3)nc12 [Compound 17]
2.7	Nc1nc2ccc(Cl)cc2n2c(=O)n(Cc3ccccc3)nc12 [Compound 28]
4.7	N#C/N=c1\n(Cc2ccccc2)nc2c(N)nc3ccccc3n12 [Compound 32]
2.6	Nc1nc2cc(C=O)ccc2n2c(=O)n(Cc3ccccc3)nc12 [Compound 25]
1.7	COC(=O)c1ccc2c(c1)nc(N)c1nn(Cc3ccccc3)c(=O)n12 [Compound 19]
3	CC(=O)c1ccc2c(c1)nc(N)c1nn(Cc3ccccc3)c(=O)n12 [Compound 31]
29.2	Nc1nc2ccccc2n2c(=O)n(CCc3ccccc3)nc12 [Compound 45]
2	CC(C)(O)c1ccccc1Cn1nc2c(N)nc3ccccc3n2c1=O [Compound 23]
12.1	COc1ccc2nc(N)c3nn(Cc4ccccc4)c(=O)n3c2c1 [Compound 43]
2.8	Nc1nc2cc(F)c(F)cc2n2c(=O)n(Cc3c(F)cc(F)cc3F)nc12 [Compound 24]
1.2	N#Cc1ccccc1Cn1nc2c(N)nc3ccccc3n2c1=O [Compound 14]
66.4	Nc1nc2ccccc2n2c(=O)n(Cc3ccccc3C(=O)N3CCOCC3)nc12 [Compound 54]
8.6	Nc1nc2cc(CO)ccc2n2c(=O)n(Cc3ccccc3)nc12 [Compound 40]
60	Nc1nc2ccc(CO)cc2n2c(=O)n(Cc3ccccc3)nc12 [Compound 53]
1.4	Nc1nc2cc(Cl)c(Cl)cc2n2c(=O)n(Cc3ccccc3)nc12 [Compound 16]
51.5	COc1ccc2nc(N)c3nn(Cc4ccccc4C(F)(F)F)c(=O)n3c2c1 [Compound 51]
28.9	CN(C)C(=O)c1ccccc1Cn1nc2c(N)nc3ccccc3n2c1=O [Compound 48]

Ki [nM]	Compound
1	Nc1nc2ccccc2n2c(=O)n(Cc3c(F)cccc3F)nc12 [Compound 9]
0.7	Nc1nc2ccccc2n2c(=O)n(Cc3ccccc3)nc12 [Compound 2]
1.8	Nc1nc2cc(C(F)(F)F)ccc2n2c(=O)n(Cc3c(F)cccc3F)nc12 [Compound 20]
7.4	CC(=O)Nc1ccccc1Cn1nc2c(N)nc3ccccc3n2c1=O [Compound 38]
1.4	Nc1nc2cc([N+](=O)[O-])ccc2n2c(=O)n(Cc3ccccc3)nc12 [Compound 15]
46.3	Nc1nc2cccnc2n2c(=O)n(Cc3ccccc3)nc12 [Compound 50]
6	N=c1n(Cc2ccccc2)nc2c(N)nc3ccccc3n12 [Compound 35]
5.6	Nc1ccc2c(c1)nc(N)c1nn(Cc3ccccc3)c(=O)n12 [Compound 33]
0.6	Cc1cccc2c1nc(N)c1nn(Cc3ccccc3)c(=O)n12 [Compound 3]
1.9	Nc1nc2ccccc2n2c(=O)n(Cc3ccc(F)cc3)nc12 [Compound 18]
2.5	Nc1nc2ccccc2n2c(=O)n(Cc3c(F)cccc3C(F)(F)F)nc12 [Compound 27]
1.4	Nc1nc2ccccc2n2c(=O)n(Cc3c(F)cc(F)cc3F)nc12 [Compound 13]
1	Nc1nc2ccccc2n2c(=O)n(Cc3cccc(F)c3F)nc12 [Compound 8]
1.2	Nc1nc2ccccc2n2c(=O)n(Cc3ccccc3CO)nc12 [Compound 11]
0.9	Nc1nc2ccc(F)cc2n2c(=O)n(Cc3ccccc3)nc12 [Compound 6]
2.2	Nc1nc2ccc(F)cc2n2c(=O)n(Cc3c(F)cccc3C(F)(F)F)nc12 [Compound 22]
1.8	Nc1nc2ccccc2n2c(=O)n(Cc3ccccc3C(F)(F)F)nc12 [Compound 21]
1	Nc1nc2ccc(F)cc2n2c(=O)n(Cc3ccc(F)cc3)nc12 [Compound 10]
70.8	COC(=O)c1ccc2nc(N)c3nn(Cc4ccccc4)c(=O)n3c2c1 [Compound 55]
0.7	Nc1ccccc1Cn1nc2c(N)nc3ccccc3n2c1=O [Compound 5]
7.4	Nc1nc2ccccc2n2c(=O)n(Cc3cc(F)cc(F)c3)nc12 [Compound 37]
10.2	Nc1nc2ccc(C(F)(F)F)cc2n2c(=O)n(Cc3c(F)cccc3F)nc12 [Compound 42]
91.1	CC(c1ccccc1)n1nc2c(N)nc3ccccc3n2c1=O (stereo not drawn) [Compound 56]
14	COc1cccc(OC)c1Cn1nc2c(N)nc3ccccc3n2c1=O [Compound 44]
3.2	Nc1nc2ccccc2n2c(=O)n(Cc3ccccc3[N+](=O)[O-])nc12 [Compound 29]
1	Nc1nc2ccc(F)cc2n2c(=O)n(Cc3c(F)cc(F)cc3F)nc12 [Compound 12]
28.9	CCCCNc1nc2ccc(F)cc2n2c(=O)n(Cc3ccccc3)nc12 [Compound 46]

Same assay, conditions: Table II; human A2a membranes, [3H]-SCH 58261 0.5 nM, Cheng-Prusoff; read-out: Activity (Ki in nM)

Ki [nM]	Compound
42	Nc1nc2ccccc2n2cc(C(=O)c3ccccc3)nc12 [Compound 59]
29	Nc1nc2ccccc2n2cc(C(O)c3ccccc3)nc12 (stereo not drawn) [Compound 60]
57	Nc1nc2ccccc2n2cc(-c3ccccc3)nc12 [Compound 58]
4.1	Nc1nc2ccccc2n2cc(Cc3ccccc3)nc12 [Compound 57]

Same assay, conditions: assay of Example 25; read-out: Ki value for the adenosine A2a receptor

Ki [nM]	Compound
0.7	Nc1nc2ccccc2c2nc(Cc3ccccc3)cn12 [Compound 62]
0.7	Nc1nc2ccccc2n2nc(Cc3ccccc3)nc12 [Compound 61]
